In US20240059703A1 (AMGEN INC., priority 2021, published 2024):

Tests used:
[1] = tested on: A549 (human lung carcinoma) cells; assay: Cell Viability Assay (CellTiter-Glo), A549; assay type: cell-based; details: Homo sapiens, A549, 72 h
Procedure, shortened: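 After a 72 h exposure to serial compound dilutions at 37° C, luminescent ATP content was measured with CellTiter-Glo. The cells were A549 or MIA PaCa-2, seeded at 1.67E+04 cells/mL in RPMI 1640 with 10% serum. Signals were normalized to DMSO controls and IC50 fitted with a 4-parameter logistic model.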

KRAS G12C = KRAS G12C (Homo sapiens (Human), UniProt P01116, C118A/G12C); assay: 2 h coupled exchange assay; assay type: biochemical; details: Avg 2 h Coupled exchange IC50, 2 h compound pre-incubation, SOS-mediated nucleotide exchange
Method: The term “2 h coupled exchange assay” or “20 h coupled exchange assay” as used herein refers to the assay described in the Section entitled “BIOLOGICAL EVALUATION.”

[2] = tested on: MIA PaCa-2 (human pancreatic carcinoma) cells; assay: Cell Viability Assay (CellTiter-Glo), MIA PaCa-2; assay type: cell-based; details: Homo sapiens, MIA PaCa-2, 72 h
Method: Serially-diluted compound or DMSO was added to the cells, and plates were incubated at 37° C., 5% CO2 for 72 h. Cell viability was measured using a CellTiter-Glo® Luminescent Cell Viability Assay kit (Promega) according to the manufacturer's protocol. The luminescence signal of treated samples was normalized to DMSO control, and data were analyzed using a 4-parameter logistic model to calculate IC50 values.

KRAS G12C, sequence (P01116 other isoform, or with tags, fused parts or gaps G12C/C118A): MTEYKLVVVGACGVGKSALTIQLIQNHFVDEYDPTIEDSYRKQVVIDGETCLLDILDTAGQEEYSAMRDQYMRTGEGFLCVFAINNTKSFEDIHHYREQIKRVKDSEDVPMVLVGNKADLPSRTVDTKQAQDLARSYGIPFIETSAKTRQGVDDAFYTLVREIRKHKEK

IC50 [1]	IC50 (KRAS G12C)	IC50 [2]	Compound
> 5000 nM	43 nM	231 nM	C=CC(=O)N1CC2(CCN(c3nc4c(c(-c5c(C)ccc6[nH]ncc56)c3C#N)CC(C)(C)C4)C2C)C1 [Example 13-52, 6,6-dimethyl-4-(5-methyl-1H-indazol-4-yl)-2-((5R)-5-methyl-2-(2-propenoyl)-2,6-diazaspiro[3.4]octan-6-yl)-6,7-dihydro-5H-cyclopenta[b]pyridine-3-carbonitrile|6,6-dimethyl-4-(5-methyl-1H-indazol-4-yl)-2-((5S)-5-methyl-2-(2-propenoyl)-2,6-diazaspiro[3.4]octan-6-yl)-6,7-dihydro-5H-cyclopenta[b]pyridine-3-carbonitrile]
> 5000 nM	74 nM	472 nM	C=CC(=O)N1CC2(CCN(c3nc4c(c(-c5cc(O)cc6ccccc56)c3C#N)CC(C)(C)C4)C2)C1 [Example 13-65, 4-(3-hydroxy-1-naphthalenyl)-6,6-dimethyl-2-(2-(2-propenoyl)-2,6-diazaspiro[3.4]octan-6-yl)-6,7-dihydro-5H-cyclopenta[b]pyridine-3-carbonitirle]
> 5000 nM	98 nM	319 nM	C=CC(=O)N1CC2(CCN(c3nc4c(c(-c5c(C)ccc6[nH]ncc56)c3C#N)CC3CC43)C2)C1 (stereo not drawn) [Example 13-81]
> 5000 nM	66 nM	462 nM	C=CC(=O)N1CC2(CCN(c3nc4c(c(-c5c(C)ccc6[nH]ncc56)c3C#N)C3CC3C4)C2)C1 (stereo not drawn) [Example 13-82]
> 5000 nM	86 nM	> 5000 nM	C=CC(=O)N1CC2(CCN(c3nc4c(c(-c5c(C)ccc6[nH]ncc56)c3C#N)CC(C3CC3)C4)C2)C1 [Example 13-83, (6R)-6-cyclopropyl-4-(5-methyl-1H-indazol-4-yl)-2-(2-(2-propenoyl)-2,6-diazaspiro[3.4]octan-6-yl)-6,7-dihydro-5H-cyclopenta[b]pyridine-3-carbonitrile|(6S)-6-cyclopropyl-4-(5-methyl-1H-indazol-4-yl)-2-(2-(2-propenoyl)-2,6-diazaspiro[3.4]octan-6-yl)-6,7-dihydro-5H-cyclopenta[b]pyridine-3-carbonitrile]
> 5000 nM	108 nM	479 nM	C=CC(=O)N1CC2(CCN(c3nc4c(c(-c5c(C)ccc6[nH]ncc56)c3C#N)C3C(C4)C3(C)C)C2)C1 (stereo not drawn) [Example 13-84]
> 5000 nM	35 nM	101 nM	C=CC(=O)N1CC2(CCN(c3nc4c(c(-c5c(C)c(C)cc6cnn(C)c56)c3C#N)CCC(C)(C)C4)C2)C1 [Example 13-89, 7,7-dimethyl-2-(2-(2-propenoyl)-2,6-diazaspiro[3.4]octan-6-yl)-4-(1,5,6-trimethyl-1H-indazol-7-yl)-5,6,7,8-tetrahydro-3-quinolinecarbonitrile]
> 5000 nM	27 nM	24 nM	C=CC(=O)N1CC2(CCN(c3nc4c(c(-c5c(C)c(C)cc6cnn(C)c56)c3C#N)COC(C)(C)C4)C2)C1 [Example 13-90, 7,7-dimethyl-2-(2-(2-propenoyl)-2,6-diazaspiro[3.4]octan-6-yl)-4-(1,5,6-trimethyl-1H-indazol-7-yl)-7,8-dihydro-5H-pyrano[4,3-b]pyridine-3-carbonitrile]
> 5000 nM	53 nM	13 nM	C=CC(=O)N1CC2(CCN(c3nc4c(c(-c5c(C)ccc6[nH]ncc56)c3C#N)C[C@H]3C[C@@H]4C3(C)C)C2)C1 [Example 13-93, (6R,8R)-2-(2-acryloyl-2,6-diazaspiro[3.4]octan-6-yl)-7,7-dimethyl-4-(5-methyl-1H-indazol-4-yl)-5,6,7,8-tetrahydro-6,8-methanoquinoline-3-carbonitrile]
> 5000 nM	51 nM	42 nM	C=CC(=O)N1CC2(CCN(c3nc4c(c(-c5c(C)ccc6[nH]ncc56)c3C#N)C[C@H]3C[C@@H]4C3(C)C)C2C)C1 (stereo partly drawn) [Example 13-94, (1R,9R)-10,10-dimethyl-6-(5-methyl-1H-indazol-4-yl)-4-((5R)-5-methyl-2-(2-propenoyl)-2,6-diazaspior[3.4]octan-6-yl)-3-azatricyclo[7.1.1.0^2,7]undeca-2,4,6-triene-5-carbonitrile|(1R,9R)-10,10-dimethyl-6-(5-methyl-1H-indazol-4-yl)-4-((5S)-5-methyl-2-(2-propenoyl)-2,6-diazaspiro[3.4]octan-6-yl)-3-azatricyclo[7.1.1.0^2,7]undeca-2,4,6-triene-5-carbonitrile]
> 5000 nM	34 nM	92 nM	C=CC(=O)N1CC2(CCN(c3nc4c(c(-c5c(C)ccc6[nH]ncc56)c3C#N)COC(C)(C)C4)C2)C1 [Example 13-95, 2-(2-acryloyl-2,6-diazaspiro[3.4]octan-6-yl)-7,7-dimethyl-4-(5-methyl-1H-indazol-4-yl)-7,8-dihydro-5H-pyrano[4,3-b]pyridine-3-carbonitrile]
> 5000 nM	325 nM	> 5000 nM	C=CC(=O)N1CC2(CCN(c3nc4c(c(-c5c(C)ccc6[nH]ncc56)c3C#N)CCCC4(F)F)C2)C1 [Example 13-96, 2-(2-acryloyl-2,6-diazaspiro[3.4]octan-6-yl)-8,8-difluoro-4-(5-methyl-1H-indazol-4-yl)-5,6,7,8-tetrahydroquinoline-3-carbonitrile]
> 5000 nM	46 nM	423 nM	C=CC(=O)N1CC2(CCN(c3nc4c(c(-c5c(C)ccc6[nH]ncc56)c3C#N)CCC4(C)C)C2)C1 [Example 13-97, 2-(2-acryloyl-2,6-diazaspiro[3.4]octan-6-yl)-7,7-dimethyl-4-(5-methyl-1H-indazol-4-yl)-6,7-dihydro-5H-cyclopenta[b]pyridine-3-carbonitrile]
> 5000 nM	51 nM	103 nM	C=CC(=O)N1CC2(CCN(c3nc4c(c(-c5c(C)ccc6[nH]ncc56)c3C#N)COC3(CCC3)C4)C2)C1 [Example 13-98, 2′-(2-acryloyl-2,6-diazaspiro[3.4]octan-6-yl)-4′-(5-methyl-1H-indazol-4-yl)-5′,8′-dihydrospiro[cyclobutane-1,7′-pyrano[4,3-b]pyridine]-3′-carbonitrile]
> 5000 nM	180 nM	1430 nM	C=CC(=O)N1CC2(CCN(c3nc4c(c(-c5c(C)ccc6[nH]ncc56)c3C#N)COC(C(F)(F)F)C4)C2)C1 (stereo not drawn) [Example 13-99]
> 5000 nM	124 nM	947 nM	C=CC(=O)N1CC2(CCN(c3nc4c(c(-c5c(C)ccc6[nH]ncc56)c3C#N)COC4(C)C)C2)C1 [Example 13-100, 2-(2-acryloyl-2,6-diazaspiro[3.4]octan-6-yl)-7,7-dimethyl-4-(5-methyl-1H-indazol-4-yl)-5,7-dihydrofuro[3,4-b]pyridine-3-carbonitrile]
> 5000 nM	102 nM	1370 nM	C=CC(=O)N1CC2(CCN(c3nc4c(c(-c5c(C)ccc6[nH]ncc56)c3C#N)CCC43CC3)C2)C1 [Example 13-101, 2-(2-acryloyl-2,6-diazaspiro[3.4]octan-6-yl)-4-(5-methyl-1H-indazol-4-yl)-5,6-dihydrospiro[cyclopenta[b]pyridine-7,1′-cyclopropane]-3-carbonitrile]
> 5000 nM	97 nM	1340 nM	C=CC(=O)N1CC2(CCN(c3nc4c(c(-c5c(C)ccc6cnn(C)c56)c3C#N)C[C@H]3C[C@@H]4C3(C)C)C2)C1 [Example 13-104, (1R,9R)-6-(1,6-dimethyl-1H-indazol-7-yl)-10,10-dimethyl-4-(2-(2-propenoyl)-2,6-diazaspiro[3.4]octan-6-yl)-3-azatricyclo[7.1.1.0^2,7]undeca-2,4,6-triene-5-carbonitrile]
2910 nM	24 nM	63 nM	C=CC(=O)N1CC2(CCN(c3nc4c(c(-c5cc(O)cc6ccccc56)c3C#N)C[C@H]3C[C@@H]4C3(C)C)C2)C1 [Example 13-108, (1R,9R)-6-(3-hydroxy-1-naphthalenyl)-10,10-dimethyl-4-(2-(2-propenoyl)-2,6-diazaspiro[3.4]octan-6-yl)-3-azatricyclo[7.1.1.0^2,7]undeca-2,4,6-triene-5-carbonitrile]
> 5000 nM	73 nM	524 nM	C=CC(=O)N1CC2(CCN(c3nc4c(c(-c5c(C)ccc6cnn(C)c56)c3C#N)C[C@H]3C[C@@H]4C3)C2)C1 [Example 13-110, (1S,9S)-6-(1,6-dimethyl-1H-indazol-7-yl)-4-(2-(2-propenoyl)-2,6-diazaspiro[3.4]octan-6-yl)-3-azatricyclo[7.1.1.0^2,7]undeca-2,4,6-triene-5-carbonitrile]
> 5000 nM	117 nM	> 5000 nM	C=CC(=O)N1CC2(CCN(c3nc4c(c(-c5cc(O)ccc5C)c3C#N)COC(C)(C)C4)C2)C1 [Example 13-112, 4-(5-hydroxy-2-methylphenyl)-7,7-dimethyl-2-(2-(2-propenoyl)-2,6-diazaspiro[3.4]octan-6-yl)-7,8-dihydro-5H-pyrano[4,3-b]pyridine-3-carbonitrile]
> 5000 nM	71 nM	> 5000 nM	C=CC(=O)N1CC2(CCN(c3nc4c(c(-c5cc(O)ccc5C)c3C#N)C[C@H]3C[C@@H]4C3)C2)C1 [Example 13-113, (1S,9S)-6-(5-hydroxy-2-methylphenyl)-4-(2-(2-propenoyl)-2,6-diazaspiro[3.4]octan-6-yl)-3-azatricyclo[7.1.1.0^2,7]undeca-2,4,6-triene-5-carbonitrile]
